# Measured values published in the supplement of paper PMC10733146.
# Columns and labels:
# Assay in all cases: viability relative to DMSO control (fraction); higher = less drug effect (more viable cells)
# Conditions in all cases: 48 h
# [1] = tested on: primary AML patient cells (S017)
# Outline: (§1)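 Viability was measured as CellTiter-Glo luminescence relative to the median of 16 inner DMSO wells. Primary mononuclear tumour cells, fresh or cryopreserved, were Ficoll-isolated from blood or bone marrow or taken from processed lymph node. They were seeded at 4 × 10^4 cells per well into 384-well plates holding pre-plated compounds at five concentrations, one well each, and kept in RPMI-1640 with penicillin/streptomycin, L-glutamine and human serum at 37 °C and 5% CO2 for 48 h.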
# [2] = tested on: primary ALL patient cells (S048)
# Outline: as §1
# [3] = tested on: primary AML patient cells (S009)
# Outline: as §1
# [4] = tested on: primary MCL patient cells (S068)
# Outline: as §1
# [5] = tested on: primary AML patient cells (S006)
# Outline: as §1
# [6] = tested on: primary AML patient cells (S012)
# Outline: as §1
# [7] = tested on: primary AML patient cells (S055)
# Outline: as §1
# [8] = tested on: primary MCL patient cells (S063)
# Outline: as §1
# [9] = tested on: primary AML patient cells (S002)
# Outline: as §1
# [10] = tested on: primary AML patient cells (S081)
# Outline: as §1
# [11] = tested on: primary AML patient cells (S079)
# Outline: as §1
# [12] = tested on: primary CLL patient cells (S043)
# Outline: as §1
# [13] = tested on: primary MCL patient cells (S053)
# Outline: as §1
# [14] = tested on: primary BL patient cells (S005)
# Outline: as §1
# [15] = tested on: primary AML patient cells (S021)
# Outline: as §1
# [16] = tested on: primary AML patient cells (S056)
# Outline: as §1
# [17] = tested on: primary T-PLL patient cells (S008)
# Outline: as §1
# [18] = tested on: primary AML patient cells (S072)
# Outline: as §1
# [19] = tested on: primary FL patient cells (S022)
# Outline: as §1
smiles,measurement,setting,value
Nc1ccc2ncnc(NCCc3ccc(Oc4ccccc4)cc3)c2c1 [EVP4593],viability,[1]; 0.008 µM,0.889
same,viability,[1]; 0.04 µM,0.933
same,viability,[1]; 0.2 µM,0.875
same,viability,[1]; 1 µM,0.901
same,viability,[1]; 5 µM,0.795
same,viability,[2]; 0.008 µM,0.776
same,viability,[2]; 0.04 µM,0.919
same,viability,[2]; 0.2 µM,0.88
same,viability,[2]; 1 µM,0.869
same,viability,[2]; 5 µM,0.676
same,viability,[3]; 0.008 µM,0.792
same,viability,[3]; 0.04 µM,0.705
same,viability,[3]; 0.2 µM,0.749
same,viability,[3]; 1 µM,0.636
same,viability,[3]; 5 µM,0.691
same,viability,[4]; 0.008 µM,0.844
same,viability,[4]; 0.04 µM,0.766
same,viability,[4]; 0.2 µM,0.741
same,viability,[4]; 1 µM,0.683
same,viability,[4]; 5 µM,0.676
same,viability,[5]; 0.008 µM,0.855
same,viability,[5]; 0.04 µM,0.755
same,viability,[5]; 0.2 µM,0.557
same,viability,[5]; 1 µM,0.362
same,viability,[5]; 5 µM,0.248
same,viability,[6]; 0.008 µM,1.05
same,viability,[6]; 0.04 µM,1.03
same,viability,[6]; 0.2 µM,1.07
same,viability,[6]; 1 µM,0.992
same,viability,[6]; 5 µM,1.05
same,viability,[7]; 0.008 µM,0.913
same,viability,[7]; 0.04 µM,0.853
same,viability,[7]; 0.2 µM,0.791
same,viability,[7]; 1 µM,0.828
same,viability,[7]; 5 µM,0.828
same,viability,[8]; 0.008 µM,0.934
same,viability,[8]; 0.04 µM,0.945
same,viability,[8]; 0.2 µM,0.924
same,viability,[8]; 1 µM,0.874
same,viability,[8]; 5 µM,0.866
same,viability,[9]; 0.008 µM,0.922
same,viability,[9]; 0.04 µM,0.857
same,viability,[9]; 0.2 µM,0.753
same,viability,[9]; 1 µM,0.668
same,viability,[9]; 5 µM,0.726
same,viability,[10]; 0.008 µM,0.859
same,viability,[10]; 0.04 µM,0.821
same,viability,[10]; 0.2 µM,0.799
same,viability,[10]; 1 µM,0.784
same,viability,[10]; 5 µM,0.78
same,viability,[11]; 0.008 µM,0.818
same,viability,[11]; 0.04 µM,0.84
same,viability,[11]; 0.2 µM,0.806
same,viability,[11]; 1 µM,0.675
same,viability,[11]; 5 µM,0.646
same,viability,[12]; 0.008 µM,0.794
same,viability,[12]; 0.04 µM,0.794
same,viability,[12]; 0.2 µM,0.774
same,viability,[12]; 1 µM,0.726
same,viability,[12]; 5 µM,0.695
same,viability,[13]; 0.008 µM,0.876
same,viability,[13]; 0.04 µM,0.875
same,viability,[13]; 0.2 µM,0.821
same,viability,[13]; 1 µM,0.672
same,viability,[13]; 5 µM,0.642
same,viability,[14]; 0.008 µM,1.01
same,viability,[14]; 0.04 µM,0.939
same,viability,[14]; 0.2 µM,0.811
same,viability,[14]; 1 µM,0.73
same,viability,[14]; 5 µM,0.716
same,viability,[15]; 0.008 µM,0.769
same,viability,[15]; 0.04 µM,0.659
same,viability,[15]; 0.2 µM,0.572
same,viability,[15]; 1 µM,0.437
same,viability,[15]; 5 µM,0.439
same,viability,[16]; 0.008 µM,0.691
same,viability,[16]; 0.04 µM,0.627
same,viability,[16]; 0.2 µM,0.412
same,viability,[16]; 1 µM,0.313
same,viability,[16]; 5 µM,0.307
same,viability,[17]; 0.008 µM,0.997
same,viability,[17]; 0.04 µM,0.971
same,viability,[17]; 0.2 µM,0.894
same,viability,[17]; 1 µM,0.861
same,viability,[17]; 5 µM,0.868
same,viability,[18]; 0.008 µM,0.844
same,viability,[18]; 0.04 µM,0.823
same,viability,[18]; 0.2 µM,0.772
same,viability,[18]; 1 µM,0.637
same,viability,[18]; 5 µM,0.652
same,viability,[19]; 0.008 µM,0.911
same,viability,[19]; 0.04 µM,0.871
same,viability,[19]; 0.2 µM,0.805
same,viability,[19]; 1 µM,0.816
same,viability,[19]; 5 µM,0.825
